In ChEMBL document CHEMBL4507284, “Data for DCP probe BI-1230” (2021):

What was measured:
[1] = molecular target: LIM domain kinase 1 (Homo sapiens) (UniProt P53667); details: Compound concentration 1000.0 nM
[2] = molecular target: Ephrin type-A receptor 4 (Homo sapiens) (UniProt P54764); details: Compound concentration 1000.0 nM
[3] = molecular target: Ankyrin repeat and protein kinase domain-containing protein 1 (Homo sapiens) (UniProt Q8NFD2); details: Compound concentration 1000.0 nM
[4] = tested on: Hepatocyte growth factor receptor (Homo sapiens), P08581 [Y1235D]; details: Compound concentration 1000.0 nM
[5] = molecular target: Mitogen-activated protein kinase 11 (Homo sapiens) (UniProt Q15759); details: Compound concentration 1000.0 nM
[6] = tested on: Proto-oncogene tyrosine-protein kinase receptor Ret (Homo sapiens), P07949 [V804M]; details: Compound concentration 1000.0 nM
[7] = molecular target: Serine/threonine-protein kinase LATS2 (Homo sapiens) (UniProt Q9NRM7); details: Compound concentration 1000.0 nM
[8] = molecular target: Beta-3 adrenergic receptor (Homo sapiens, UniProt P13945); details: Compound concentration 10.0 uM
[9] = molecular target: Receptor tyrosine-protein kinase erbB-3 (Homo sapiens) (UniProt P21860); details: Compound concentration 1000.0 nM
[10] = molecular target: Aurora kinase C (Homo sapiens) (UniProt Q9UQB9); details: Compound concentration 1000.0 nM
Aurora kinase C (Homo sapiens), sequence (Q9UQB9 whole entry): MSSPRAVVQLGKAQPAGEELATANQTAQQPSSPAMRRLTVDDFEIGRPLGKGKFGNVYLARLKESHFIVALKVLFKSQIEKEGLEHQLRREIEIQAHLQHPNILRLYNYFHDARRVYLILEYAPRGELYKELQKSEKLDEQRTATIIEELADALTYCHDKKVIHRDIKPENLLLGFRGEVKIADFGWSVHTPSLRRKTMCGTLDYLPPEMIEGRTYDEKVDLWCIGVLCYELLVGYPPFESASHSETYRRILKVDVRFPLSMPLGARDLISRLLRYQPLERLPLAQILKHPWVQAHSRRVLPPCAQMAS

[11] = molecular target: Cyclin-dependent kinase 2 (Homo sapiens) (UniProt P24941); details: Compound concentration 1000.0 nM
[12] = molecular target: Serine/threonine-protein kinase Chk1 (Homo sapiens) (UniProt O14757); details: Compound concentration 1000.0 nM
[13] = molecular target: Mitogen-activated protein kinase kinase kinase 1 (Homo sapiens) (UniProt Q13233); details: Compound concentration 1000.0 nM
[14] = molecular target: Protein kinase C eta type (Homo sapiens) (UniProt P24723); details: Compound concentration 1000.0 nM
[15] = molecular target: Tyrosine-protein kinase Lyn (Homo sapiens) (UniProt P07948); details: Compound concentration 1000.0 nM
[16] = molecular target: Ephrin type-B receptor 4 (Homo sapiens) (UniProt P54760); details: Compound concentration 1000.0 nM
[17] = molecular target: Homeodomain-interacting protein kinase 1 (Homo sapiens) (UniProt Q86Z02); details: Compound concentration 1000.0 nM
Homeodomain-interacting protein kinase 1 (Homo sapiens), sequence (Q86Z02 whole entry, looked up): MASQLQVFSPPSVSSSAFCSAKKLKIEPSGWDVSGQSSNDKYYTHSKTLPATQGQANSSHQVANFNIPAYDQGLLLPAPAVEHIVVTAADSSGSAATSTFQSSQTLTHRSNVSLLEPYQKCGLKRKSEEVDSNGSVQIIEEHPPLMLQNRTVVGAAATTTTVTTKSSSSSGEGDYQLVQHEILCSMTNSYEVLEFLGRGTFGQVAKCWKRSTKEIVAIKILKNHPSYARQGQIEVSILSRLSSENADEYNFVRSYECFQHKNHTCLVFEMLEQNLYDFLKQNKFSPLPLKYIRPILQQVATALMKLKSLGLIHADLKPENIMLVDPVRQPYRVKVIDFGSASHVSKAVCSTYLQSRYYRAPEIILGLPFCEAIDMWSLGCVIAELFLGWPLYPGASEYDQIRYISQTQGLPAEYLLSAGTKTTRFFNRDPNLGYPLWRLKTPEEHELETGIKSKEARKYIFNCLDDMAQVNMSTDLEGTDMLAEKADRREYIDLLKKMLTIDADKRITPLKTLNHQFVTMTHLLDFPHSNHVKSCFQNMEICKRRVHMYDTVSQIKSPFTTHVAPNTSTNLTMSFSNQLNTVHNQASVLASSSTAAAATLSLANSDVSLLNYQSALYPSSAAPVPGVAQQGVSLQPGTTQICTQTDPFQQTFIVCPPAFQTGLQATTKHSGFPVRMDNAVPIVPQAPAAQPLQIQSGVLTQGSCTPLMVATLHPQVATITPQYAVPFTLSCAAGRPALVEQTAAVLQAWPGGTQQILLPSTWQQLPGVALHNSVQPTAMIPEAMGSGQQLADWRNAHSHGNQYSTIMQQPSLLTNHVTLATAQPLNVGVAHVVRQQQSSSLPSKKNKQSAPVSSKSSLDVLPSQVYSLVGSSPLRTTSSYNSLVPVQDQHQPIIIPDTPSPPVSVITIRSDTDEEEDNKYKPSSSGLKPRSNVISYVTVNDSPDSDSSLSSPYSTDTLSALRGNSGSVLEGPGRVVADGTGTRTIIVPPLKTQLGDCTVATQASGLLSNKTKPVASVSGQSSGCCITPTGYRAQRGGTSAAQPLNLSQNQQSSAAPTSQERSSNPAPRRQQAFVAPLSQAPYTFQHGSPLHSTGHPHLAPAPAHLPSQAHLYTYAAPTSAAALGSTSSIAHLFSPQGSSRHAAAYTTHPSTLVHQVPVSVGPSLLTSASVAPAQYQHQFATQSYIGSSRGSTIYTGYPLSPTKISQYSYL

[18] = tested on: Serine/threonine-protein kinase B-raf (Homo sapiens), P15056 [V600E]; details: Compound concentration 1000.0 nM
[19] = molecular target: D(1A) dopamine receptor (Homo sapiens) (UniProt P21728); details: Compound concentration 10.0 uM
[20] = molecular target: Mitogen-activated protein kinase kinase kinase kinase 2 (Homo sapiens) (UniProt Q12851); details: Compound concentration 1000.0 nM
[21] = molecular target: Mu-type opioid receptor (Homo sapiens) (UniProt P35372); details: Compound concentration 10.0 uM
[22] = molecular target: Cyclin-dependent kinase 16 (Homo sapiens) (UniProt Q00536); details: Compound concentration 1000.0 nM
[23] = tested on: Tyrosine-protein kinase ABL1 (Homo sapiens), P00519 [E255K]; details: Compound concentration 1000.0 nM
[24] = tested on: Receptor-type tyrosine-protein kinase FLT3 (Homo sapiens), P36888 [UNDEFINED MUTATION]; details: Compound concentration 1000.0 nM
[25] = molecular target: Mitogen-activated protein kinase 7 (Homo sapiens) (UniProt Q13164); details: Compound concentration 1000.0 nM
[26] = molecular target: Calcium/calmodulin-dependent protein kinase type 1G (Homo sapiens) (UniProt Q96NX5); details: Compound concentration 1000.0 nM
[27] = tested on: Tyrosine-protein kinase ABL1 (Homo sapiens), P00519 [F317L]; details: Compound concentration 1000.0 nM
[28] = molecular target: Serine/threonine-protein kinase WNK4 (Homo sapiens) (UniProt Q96J92); details: Compound concentration 1000.0 nM
[29] = molecular target: Serine/threonine-protein kinase PLK1 (Homo sapiens) (UniProt P53350); details: Compound concentration 1000.0 nM
Serine/threonine-protein kinase PLK1 (Homo sapiens), sequence (P53350 whole entry): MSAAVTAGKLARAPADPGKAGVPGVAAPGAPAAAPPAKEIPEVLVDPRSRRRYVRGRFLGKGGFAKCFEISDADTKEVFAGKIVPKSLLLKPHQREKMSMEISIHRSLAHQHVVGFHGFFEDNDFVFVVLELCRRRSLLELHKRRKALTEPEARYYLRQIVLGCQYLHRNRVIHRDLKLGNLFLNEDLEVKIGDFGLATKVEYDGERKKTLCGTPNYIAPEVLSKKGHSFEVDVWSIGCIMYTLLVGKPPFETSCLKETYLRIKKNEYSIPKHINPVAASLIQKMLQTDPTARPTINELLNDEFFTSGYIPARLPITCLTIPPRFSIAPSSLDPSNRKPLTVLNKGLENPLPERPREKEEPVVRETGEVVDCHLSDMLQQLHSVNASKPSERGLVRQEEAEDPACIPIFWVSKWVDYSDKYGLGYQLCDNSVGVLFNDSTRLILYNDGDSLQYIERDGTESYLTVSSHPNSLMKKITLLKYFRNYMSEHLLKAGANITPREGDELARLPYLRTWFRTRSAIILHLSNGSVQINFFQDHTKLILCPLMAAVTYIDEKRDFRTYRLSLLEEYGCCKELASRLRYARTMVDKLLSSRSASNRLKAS

[30] = molecular target: Serine/threonine-protein kinase TBK1 (Homo sapiens) (UniProt Q9UHD2); details: Compound concentration 1000.0 nM
Serine/threonine-protein kinase TBK1 (Homo sapiens), sequence (Q9UHD2 whole entry): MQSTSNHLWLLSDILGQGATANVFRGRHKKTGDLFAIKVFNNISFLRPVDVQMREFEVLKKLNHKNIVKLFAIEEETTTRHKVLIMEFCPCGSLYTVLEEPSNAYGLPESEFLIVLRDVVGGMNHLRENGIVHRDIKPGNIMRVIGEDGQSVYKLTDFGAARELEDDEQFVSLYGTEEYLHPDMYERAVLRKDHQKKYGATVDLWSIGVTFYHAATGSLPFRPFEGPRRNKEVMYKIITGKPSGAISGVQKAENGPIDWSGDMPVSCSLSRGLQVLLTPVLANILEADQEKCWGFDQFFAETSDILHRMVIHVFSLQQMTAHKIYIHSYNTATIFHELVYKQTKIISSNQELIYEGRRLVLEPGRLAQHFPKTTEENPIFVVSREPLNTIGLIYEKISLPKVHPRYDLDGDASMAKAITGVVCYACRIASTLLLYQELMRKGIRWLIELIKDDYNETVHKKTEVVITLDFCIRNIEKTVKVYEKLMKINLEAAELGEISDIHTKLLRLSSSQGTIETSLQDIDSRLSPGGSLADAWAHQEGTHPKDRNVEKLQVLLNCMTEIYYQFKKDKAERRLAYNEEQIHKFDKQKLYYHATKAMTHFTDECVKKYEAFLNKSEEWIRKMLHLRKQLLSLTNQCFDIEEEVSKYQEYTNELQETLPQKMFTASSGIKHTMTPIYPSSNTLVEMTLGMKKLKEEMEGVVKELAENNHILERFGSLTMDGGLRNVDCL

[31] = molecular target: Serine/threonine-protein kinase PAK 1 (Homo sapiens) (UniProt Q13153); details: Compound concentration 1000.0 nM
[32] = molecular target: Serine/threonine-protein kinase 32B (Homo sapiens) (UniProt Q9NY57); details: Compound concentration 1000.0 nM
[33] = molecular target: Serine/threonine-protein kinase 38 (Homo sapiens) (UniProt Q15208); details: Compound concentration 1000.0 nM
[34] = tested on: ALK tyrosine kinase receptor (Homo sapiens), Q9UM73 [L1196M]; details: Compound concentration 1000.0 nM
[35] = molecular target: Serine/threonine-protein kinase PAK 2 (Homo sapiens) (UniProt Q13177); details: Compound concentration 1000.0 nM
[36] = molecular target: Protein kinase C epsilon type (Homo sapiens) (UniProt Q02156); details: Compound concentration 1000.0 nM
[37] = molecular target: Insulin receptor (Homo sapiens) (UniProt P06213); details: Compound concentration 1000.0 nM
[38] = molecular target: Hormonally up-regulated neu tumor-associated kinase (Homo sapiens) (UniProt P57058); details: Compound concentration 1000.0 nM
Hormonally up-regulated neu tumor-associated kinase (Homo sapiens), sequence (P57058 whole entry, canonical isoform): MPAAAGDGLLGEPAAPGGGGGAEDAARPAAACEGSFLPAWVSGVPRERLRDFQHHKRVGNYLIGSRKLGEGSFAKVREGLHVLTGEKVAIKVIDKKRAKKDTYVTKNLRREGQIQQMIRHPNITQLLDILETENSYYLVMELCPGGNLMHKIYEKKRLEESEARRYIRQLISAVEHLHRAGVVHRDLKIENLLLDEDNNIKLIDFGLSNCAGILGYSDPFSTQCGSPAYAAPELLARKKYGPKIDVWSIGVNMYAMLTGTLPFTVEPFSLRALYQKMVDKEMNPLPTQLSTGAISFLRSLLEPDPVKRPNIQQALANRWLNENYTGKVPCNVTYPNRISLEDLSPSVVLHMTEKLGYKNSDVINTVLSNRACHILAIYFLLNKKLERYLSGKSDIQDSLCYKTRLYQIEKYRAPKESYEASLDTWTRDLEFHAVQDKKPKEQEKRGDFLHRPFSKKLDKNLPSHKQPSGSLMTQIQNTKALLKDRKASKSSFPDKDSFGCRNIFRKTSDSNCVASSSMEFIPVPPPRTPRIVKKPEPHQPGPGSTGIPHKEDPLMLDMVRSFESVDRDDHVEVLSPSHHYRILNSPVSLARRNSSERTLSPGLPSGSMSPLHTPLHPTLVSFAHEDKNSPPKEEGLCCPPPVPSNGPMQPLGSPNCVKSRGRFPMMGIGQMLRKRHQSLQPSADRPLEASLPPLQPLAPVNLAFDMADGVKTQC

[39] = tested on: Phosphatidylinositol 4,5-bisphosphate 3-kinase catalytic subunit alpha isoform (Homo sapiens), P42336 [I800L]; details: Compound concentration 1000.0 nM
[40] = molecular target: Tyrosine-protein kinase HCK (Homo sapiens) (UniProt P08631); details: Compound concentration 1000.0 nM
[41] = molecular target: Insulin-like growth factor 1 receptor (Homo sapiens) (UniProt P08069); details: Compound concentration 1000.0 nM
[42] = molecular target: Serine/threonine-protein kinase BRSK2 (Homo sapiens) (UniProt Q8IWQ3); details: Compound concentration 1000.0 nM
Serine/threonine-protein kinase BRSK2 (Homo sapiens), sequence (Q8IWQ3 whole entry): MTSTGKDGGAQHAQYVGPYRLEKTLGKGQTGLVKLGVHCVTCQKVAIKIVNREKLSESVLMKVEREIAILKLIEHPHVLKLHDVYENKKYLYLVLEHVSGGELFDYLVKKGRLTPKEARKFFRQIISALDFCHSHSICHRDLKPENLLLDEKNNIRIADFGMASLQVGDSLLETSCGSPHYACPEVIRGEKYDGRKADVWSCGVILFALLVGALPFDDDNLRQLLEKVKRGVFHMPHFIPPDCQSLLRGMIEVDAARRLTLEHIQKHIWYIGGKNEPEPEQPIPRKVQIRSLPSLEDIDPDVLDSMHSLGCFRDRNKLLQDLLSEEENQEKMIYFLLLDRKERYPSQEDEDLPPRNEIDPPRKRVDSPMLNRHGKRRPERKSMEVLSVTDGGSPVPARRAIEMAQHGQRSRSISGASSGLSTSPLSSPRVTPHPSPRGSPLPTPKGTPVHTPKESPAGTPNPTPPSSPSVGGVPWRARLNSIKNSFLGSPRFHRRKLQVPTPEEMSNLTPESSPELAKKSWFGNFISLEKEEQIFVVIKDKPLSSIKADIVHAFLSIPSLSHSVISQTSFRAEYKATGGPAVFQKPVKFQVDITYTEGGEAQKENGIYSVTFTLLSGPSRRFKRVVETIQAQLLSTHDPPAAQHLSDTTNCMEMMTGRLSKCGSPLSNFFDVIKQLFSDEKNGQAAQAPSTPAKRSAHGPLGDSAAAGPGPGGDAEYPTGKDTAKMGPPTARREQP

[43] = molecular target: Activin receptor type-2B (Homo sapiens) (UniProt Q13705); details: Compound concentration 1000.0 nM
[44] = molecular target: Tyrosine-protein kinase JAK1 (Homo sapiens) (UniProt P23458); details: Compound concentration 1000.0 nM
[45] = molecular target: Sodium-dependent noradrenaline transporter (Homo sapiens) (UniProt P23975); details: Compound concentration 10.0 uM
[46] = molecular target: Cytoplasmic tyrosine-protein kinase BMX (Homo sapiens) (UniProt P51813); details: Compound concentration 1000.0 nM
Cytoplasmic tyrosine-protein kinase BMX (Homo sapiens), sequence (P51813 whole entry): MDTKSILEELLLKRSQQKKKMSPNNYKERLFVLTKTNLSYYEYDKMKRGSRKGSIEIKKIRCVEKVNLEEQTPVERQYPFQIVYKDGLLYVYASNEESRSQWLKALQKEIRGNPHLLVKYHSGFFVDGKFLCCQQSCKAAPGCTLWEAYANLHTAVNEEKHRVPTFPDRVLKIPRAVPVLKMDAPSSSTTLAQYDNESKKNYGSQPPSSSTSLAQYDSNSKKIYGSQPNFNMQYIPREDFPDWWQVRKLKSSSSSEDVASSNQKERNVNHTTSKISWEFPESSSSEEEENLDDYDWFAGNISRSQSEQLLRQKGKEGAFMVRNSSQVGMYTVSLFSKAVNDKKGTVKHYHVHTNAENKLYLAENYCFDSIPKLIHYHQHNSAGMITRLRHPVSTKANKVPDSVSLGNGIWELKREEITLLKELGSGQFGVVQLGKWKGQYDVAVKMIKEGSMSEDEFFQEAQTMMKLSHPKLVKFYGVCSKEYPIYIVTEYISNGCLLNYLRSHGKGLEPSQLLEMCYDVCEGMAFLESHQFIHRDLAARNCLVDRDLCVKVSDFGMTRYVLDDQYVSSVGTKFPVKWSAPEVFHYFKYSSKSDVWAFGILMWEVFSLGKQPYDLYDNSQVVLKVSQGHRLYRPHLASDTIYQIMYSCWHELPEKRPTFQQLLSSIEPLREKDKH

In the case of `COc1ccc2c(O[C@@H]3C[C@H]4C(=O)N[C@]5(C(=O)O)CC5/C=C\CCCCC[C@H](NC(=O)OC5CCCC5)C(=O)N4C3)cc(-c3csc(NC(=O)C(C)C)n3)nc2c1C` (some centres not stated) [BI 1230], the residual activity [1] was 100%, the residual activity [2] was 100% and the residual activity [3] was 79%. For the same compound, the residual activity [4] was 100%, the residual activity [5] was 100% and the residual activity [6] was 96%. For the same compound, the residual activity [7] was 98%, the inhibition [8] was 57.4% and the residual activity [9] was 88%. The residual activity [10] was 96%, the residual activity [11] was 99% and the residual activity [12] was 100%. It also gave a residual activity [13] of 82%, a residual activity [14] of 100% and a residual activity [15] of 94%. The residual activity [16] was 100%, the residual activity [17] was 77% and the residual activity [18] was 77%. The inhibition [19] was 46.3%, the residual activity [20] was 100% and the inhibition [21] was 16.6%. For the same compound, the residual activity [22] was 79%, the residual activity [23] was 80% and the residual activity [24] was 71%. For the same compound, the residual activity [25] was 100%, the residual activity [26] was 98% and the residual activity [27] was 75%. The residual activity [28] was 91%, the residual activity [29] was 77% and the residual activity [30] was 86%. The residual activity [31] was 100%, the residual activity [32] was 100% and the residual activity [33] was 50%. The residual activity [34] was 97%, the residual activity [35] was 91% and the residual activity [36] was 58%. For the same compound, the residual activity [37] was 94%, the residual activity [38] was 100% and the residual activity [39] was 65%. It also gave a residual activity [40] of 100%, a residual activity [41] of 98% and a residual activity [42] of 100%. It also gave a residual activity [43] of 100%, a residual activity [44] of 100% and an inhibition [45] of -4.46%. It also gave a residual activity [46] of 57%.
With `O=C(N[C@H]1CCCCC/C=C\C2C[C@@]2(C(=O)O)NC(=O)[C@@H]2C[C@@H](Oc3ccncc3)CN2C1=O)OC1CCCC1` (some centres not stated) [BI 1675] the residual activity [1] was 92%, the residual activity [2] was 93% and the residual activity [3] was 100%. For the same compound, the residual activity [4] was 81%, the residual activity [5] was 100% and the residual activity [6] was 100%. For the same compound, the residual activity [7] was 100%, the inhibition [8] was -9.47% and the residual activity [9] was 84%. It also gave a residual activity [10] of 92%, a residual activity [11] of 87% and a residual activity [12] of 79%. The residual activity [13] was 84%, the residual activity [14] was 91% and the residual activity [15] was 87%. The residual activity [16] was 100%, the residual activity [17] was 86% and the residual activity [18] was 93%. It also gave an inhibition [19] of -4.18%, a residual activity [20] of 100% and an inhibition [21] of -8.64%. The residual activity [22] was 83%, the residual activity [23] was 80% and the residual activity [24] was 100%. It also gave a residual activity [25] of 90%, a residual activity [26] of 76% and a residual activity [27] of 100%. For the same compound, the residual activity [28] was 100%, the residual activity [29] was 71% and the residual activity [30] was 100%. It also gave a residual activity [31] of 89%, a residual activity [32] of 99% and a residual activity [33] of 97%. For the same compound, the residual activity [34] was 100%, the residual activity [35] was 79% and the residual activity [36] was 100%. For the same compound, the residual activity [37] was 100%, the residual activity [38] was 100% and the residual activity [39] was 100%. It also gave a residual activity [40] of 100%, a residual activity [41] of 96% and a residual activity [42] of 100%. It also gave a residual activity [43] of 100%, a residual activity [44] of 96% and an inhibition [45] of -6.94%. It also gave a residual activity [46] of 66%.
